Results: the supplement of paper PMC7224384

Legend:
[1] = test system: MDA-MB-453; test: drug sensitivity score (DSS), in combination with BLU9931 (DSS (weighted AUC score)); higher = more sensitive (stronger viability decrease); extreme values may be limits of the assay; details: BLU9931 100 nM; 72 h
In short: (§1)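 Cells of the MDA-MB-453 line (2000 per well) were added in medium, with or without 100 nM final FGFR4 inhibitor, to 384-well plates predispensed with FIMM Oncology set compounds at five 10-fold dilutions covering a 10,000-fold range. After 72 h at 37 °C, 5% CO2, CellTiterGlo 2.0 read cellular ATP. Percent viability came from per-plate normalisation to control wells, and the drug sensitivity score was defined as a weighted area under a four-parameter logistic fit.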

[2] = test system: MDA-MB-453; test: drug sensitivity score (DSS), single agent (DSS (weighted AUC score)); higher = more sensitive (stronger viability decrease); extreme values may be limits of the assay; details: BLU9931 0 nM; 72 h
In short: as §1

SMILES: CCOc1ccccc1-n1c(C(C)N2CCN(C(=O)COc3ccc(Cl)cc3)CC2)nc2ccccc2c1=O (stereo unspecified) [Erastin]
- drug sensitivity score [1]: 5.6
- drug sensitivity score [2]: 4.1

SMILES: CC1=C2C[C@H]3[C@@H](CC[C@@H]4C[C@H](NS(C)(=O)=O)CC[C@@]43C)[C@@H]2CC[C@@]2(C1)O[C@@H]1C[C@H](C)CN[C@H]1[C@H]2C [Saridegib]
- drug sensitivity score [1]: 0
- drug sensitivity score [2]: 0

SMILES: CCCCC(=O)OCC(=O)[C@]1(O)Cc2c(O)c3c(c(O)c2[C@@H](O[C@H]2C[C@H](NC(=O)C(F)(F)F)[C@H](O)[C@H](C)O2)C1)C(=O)c1c(OC)cccc1C3=O [Valrubicin]
- drug sensitivity score [1]: 8
- drug sensitivity score [2]: 8.6

SMILES: COc1c(C)cnc(Cn2cnc3c(Cl)nc(N)nc32)c1C [BIIB021]
- drug sensitivity score [1]: 20.1
- drug sensitivity score [2]: 19.5

SMILES: CC(C)Nc1cc(-c2c[nH]c(C(=O)N[C@H](CO)c3cccc(Cl)c3)c2)c(Cl)cn1 [Ulixertinib]
- drug sensitivity score [1]: 0.5
- drug sensitivity score [2]: 3.5

SMILES: Cc1ncc(Cl)cc1NCc1ccc(C(=O)N[C@@H](CC2CCCC2)C(=O)NC2CC2)s1
- drug sensitivity score [1]: 0.5
- drug sensitivity score [2]: 0

SMILES: O=C(CCCCCCNC(=O)c1cnc(N(c2ccccc2)c2ccccc2)nc1)NO [Rocilinostat]
- drug sensitivity score [1]: 9.8
- drug sensitivity score [2]: 9.2

SMILES: c1cc(CN2CCCNCCNCCCNCC2)ccc1CN1CCCNCCNCCCNCC1 [Plerixafor]
- drug sensitivity score [1]: 0
- drug sensitivity score [2]: 0

SMILES: CC1(C)CCC(c2ccc(Cl)cc2)=C(CN2CCN(c3ccc(C(=O)NS(=O)(=O)c4ccc(N[C@H](CCN5CCOCC5)CSc5ccccc5)c(S(=O)(=O)C(F)(F)F)c4)cc3)CC2)C1 [Navitoclax]
- drug sensitivity score [1]: 2.4
- drug sensitivity score [2]: 0.3

SMILES: C[C@H]1C[C@@H]2[C@H]([C@@H](O)C[C@@]3(C)[C@H]2CC[C@]3(O)C(=O)CO)[C@@]2(C)C=CC(=O)C=C12 [Methylprednisolone]
- drug sensitivity score [1]: 0
- drug sensitivity score [2]: 5.2

SMILES: C[C@H]1Oc2cc(cnc2N)-c2c(nn(C)c2C#N)CN(C)C(=O)c2ccc(F)cc21
- drug sensitivity score [1]: 2.1
- drug sensitivity score [2]: 0

SMILES: COc1cc2ncnc(Oc3cccc(NC(=O)Nc4cc(C(C)(C)C(F)(F)F)on4)c3)c2cc1OC
- drug sensitivity score [1]: 3.2
- drug sensitivity score [2]: 5.1

SMILES: Cc1ccc(NS(=O)(=O)c2cccc(C#N)c2)c2[nH]cc(C#N)c12 [E7820]
- drug sensitivity score [1]: 1.1
- drug sensitivity score [2]: 3.3

SMILES: CC1(C)CC[C@]2(NC(=O)C(C)(F)F)CC[C@]3(C)[C@H](C(=O)C=C4[C@@]5(C)C=C(C#N)C(=O)C(C)(C)[C@@H]5CC[C@]43C)[C@@H]2C1 [Omaveloxolone]
- drug sensitivity score [1]: 13.5
- drug sensitivity score [2]: 14.3

SMILES: Nc1ccn([C@@H]2O[C@H](CO)[C@@H](O)[C@@H]2O)c(=O)n1 [Cytarabine]
- drug sensitivity score [1]: 0.1
- drug sensitivity score [2]: 0.8

SMILES: CC[C@@H]1CN(C(=O)NCC(F)(F)F)C[C@@H]1c1cnc2cnc3[nH]ccc3n12 [Upadacitinib]
- drug sensitivity score [1]: 0
- drug sensitivity score [2]: 0.9

SMILES: CNC(=O)c1cccc2cc(Oc3ccnc4cc(OCC5(N)CC5)c(OC)cc34)ccc12 [Lucitanib]
- drug sensitivity score [1]: 0.9
- drug sensitivity score [2]: 2.9

SMILES: Cc1cc(Nc2cc(N3CCN(C)CC3)nc(Sc3ccc(NC(=O)C4CC4)cc3)n2)n[nH]1 [Tozasertib]
- drug sensitivity score [1]: 0
- drug sensitivity score [2]: 2.5

SMILES: CC(C)(C)c1cnc(CSc2cnc(NC(=O)C3CCNCC3)s2)o1 [SNS-032]
- drug sensitivity score [1]: 19.1
- drug sensitivity score [2]: 18.1

SMILES: Cc1ccc(C(=O)Nc2ccc(Oc3cc4cnn(C)c4cc3-c3cn[nH]c3)c(F)c2)c(=O)n1-c1ccc(F)cc1 [Merestinib]
- drug sensitivity score [1]: 0
- drug sensitivity score [2]: 0

SMILES: COC(=O)c1ccc2c(c1)NC(=O)/C2=C(\Nc1ccc(N(C)C(=O)CN2CCN(C)CC2)cc1)c1ccccc1 [Nintedanib]
- drug sensitivity score [1]: 1.9
- drug sensitivity score [2]: 4.7

SMILES: CCN1CCN(c2ccc(Nc3cc(N(C)C(=O)Nc4c(Cl)c(OC)cc(OC)c4Cl)ncn3)cc2)CC1 [Infigratinib]
- drug sensitivity score [1]: 0
- drug sensitivity score [2]: 0

SMILES: Cc1cc(C(C)Nc2ccccc2)c2nc(N3CCOCC3)cc(=O)n2c1 (stereo unspecified) [TGX-221]
- drug sensitivity score [1]: 3.2
- drug sensitivity score [2]: 2.6

SMILES: CCN(CC)CCCC(C)Nc1c2ccc(Cl)cc2nc2ccc(OC)cc12 (stereo unspecified) [Mepacrine]
- drug sensitivity score [1]: 14.7
- drug sensitivity score [2]: 16.2

SMILES: O=C(c1cccc(Cl)c1F)N1CCN(Cc2cccc(Nc3nccs3)n2)CC1 [MK-8745]
- drug sensitivity score [1]: 2.4
- drug sensitivity score [2]: 5.4

SMILES: COc1ccc(-c2ccc3c(N4CCOC[C@@H]4C)nc(N4CCOC[C@@H]4C)nc3n2)cc1CO [AZD8055]
- drug sensitivity score [1]: 23.3
- drug sensitivity score [2]: 24.3

SMILES: COc1cc(Br)c(Nc2nc(-c3c(C)nc4ncccn34)cs2)c(Br)c1 [PTC-209]
- drug sensitivity score [1]: 2
- drug sensitivity score [2]: 3.2

SMILES: CCn1c(-c2nonc2N)nc2cnc(Oc3cccc(NC(=O)c4ccc(OCCN5CCOCC5)cc4)c3)cc21
- drug sensitivity score [1]: 3.8
- drug sensitivity score [2]: 3.9
